One experiment deals with HCC70 cells. The experiment can be described thus: Inhibition of cell proliferation (CyQUANT Direct), HCC70. The format is cell-based, human. Particulars: HCC70, 72-hour.
Another experiment deals with COV318 cells. The experiment can be described thus: Inhibition of cell proliferation (CyQUANT Direct), COV318. The format is cell-based, human. As to conditions: COV318, 72-hour.
A further experiment concerns COV504 cells. The experiment can be described thus: Inhibition of cell proliferation (CyQUANT Direct), COV504. The format is cell-based, human. Particulars: COV504, 72-hour.
A further experiment relates to MB453 cells. The experiment can be described thus: Inhibition of cell proliferation (CyQUANT Direct), MB453. The experiment is classed as cell-based, human. As to conditions: MB453, 72-hour.
In a further experiment the target is CDK2/Cyclin E1 complex (Homo sapiens, UniProt P24941). The experiment in a line: CDK2 kinase inhibition assay (Caliper/LabChip EZ Reader).
Experiment [1] addresses CDK7/Cyclin H/MAT1 complex (Homo sapiens, UniProt P50613). The experiment in a line: CDK7 kinase inhibition assay (Caliper/LabChip EZ Reader).
Description: (§1) Compounds described herein were assayed for inhibition of CDK7, CDK9, CDK12, and CDK2 activity at Biortus Biosciences (Jiangyin, Jiangsu Province, P.R. of China) using kinase assays for each CDK developed with a Caliper/LabChip EZ Reader (Perkin Elmer, Waltham, Mass.).
(§2) Furthermore, the CDK9 inhibition assay used CDK9/Cyclin T1 complex (8 nM) and “5-FAM-CDK9tide” peptide substrate (2 μM, synthesized fluorophore-labeled peptide with the following sequence: 5-FAM-GSRTPMY-NH2 (SEQ ID NO:2) where 5-FAM is defined above and NH2 signifies a C-terminal amide) with 10 mM MgCl2 in the buffer composition listed above. The CDK12 inhibition assay used CDK12 (aa686-1082)/Cyclin K complex (50 nM) and “5-FAM-CDK9tide” (2 μM) as defined above, with 2 mM MgCl2 in the buffer composition above. Additionally, the CDK2 inhibition assay used CDK2/Cyclin E1 complex (0.5 nM) and “5-FAM-CDK7tide” (2 μM; defined above) with 2 mM MgCl2 in the buffer composition above.
(§3) The incubation period at 27° C. for each CDK inhibition assay was chosen such that the fraction of phosphorylated peptide product produced in each assay, relative to the total peptide concentration, was approximately 20% (±5%) for the uninhibited kinase (35 min. for CDK7, 35 min. for CDK2, 3 hr. for CDK12, 15 min. for CDK9).
The target in another experiment is CDK9/Cyclin T1 complex (Homo sapiens, UniProt P50750). The experiment in a line: CDK9 kinase inhibition assay (Caliper/LabChip EZ Reader).
Sequence of CDK9/Cyclin T1 complex (P50750 whole entry, the tested form may be a part): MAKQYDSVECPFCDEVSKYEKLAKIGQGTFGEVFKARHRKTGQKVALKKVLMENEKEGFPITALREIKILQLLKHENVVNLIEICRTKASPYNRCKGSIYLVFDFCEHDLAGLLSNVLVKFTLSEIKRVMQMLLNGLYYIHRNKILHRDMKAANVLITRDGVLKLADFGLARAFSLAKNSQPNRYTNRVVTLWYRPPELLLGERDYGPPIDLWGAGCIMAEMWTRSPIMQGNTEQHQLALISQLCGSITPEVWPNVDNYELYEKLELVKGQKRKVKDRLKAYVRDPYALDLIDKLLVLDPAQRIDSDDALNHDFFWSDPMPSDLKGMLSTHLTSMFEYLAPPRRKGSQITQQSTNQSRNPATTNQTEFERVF
Sequence of CDK9/Cyclin T1 complex (O60563 whole entry partner, the tested form may be a part): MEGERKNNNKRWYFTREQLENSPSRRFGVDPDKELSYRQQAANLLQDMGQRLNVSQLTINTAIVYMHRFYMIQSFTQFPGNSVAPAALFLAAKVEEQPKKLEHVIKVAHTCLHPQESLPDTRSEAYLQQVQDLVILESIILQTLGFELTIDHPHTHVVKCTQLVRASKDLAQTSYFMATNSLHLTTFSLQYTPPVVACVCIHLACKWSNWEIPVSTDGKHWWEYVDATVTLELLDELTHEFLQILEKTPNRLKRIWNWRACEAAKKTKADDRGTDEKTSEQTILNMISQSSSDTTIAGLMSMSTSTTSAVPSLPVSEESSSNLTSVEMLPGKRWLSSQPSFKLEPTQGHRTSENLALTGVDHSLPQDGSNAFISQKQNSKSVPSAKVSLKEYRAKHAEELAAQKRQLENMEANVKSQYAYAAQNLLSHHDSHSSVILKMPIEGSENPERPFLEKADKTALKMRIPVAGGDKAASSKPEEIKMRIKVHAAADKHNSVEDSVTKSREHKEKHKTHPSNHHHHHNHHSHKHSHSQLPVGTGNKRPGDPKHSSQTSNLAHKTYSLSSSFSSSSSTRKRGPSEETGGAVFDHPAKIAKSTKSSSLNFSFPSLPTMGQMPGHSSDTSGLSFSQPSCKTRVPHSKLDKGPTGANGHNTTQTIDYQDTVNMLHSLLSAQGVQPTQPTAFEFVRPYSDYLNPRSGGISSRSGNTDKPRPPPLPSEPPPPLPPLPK
Experiment [2] concerns the target CDK12 (aa686-1082)/Cyclin K complex (Homo sapiens, UniProt Q9NYV4). The experiment can be described thus: CDK12 kinase inhibition assay (Caliper/LabChip EZ Reader).
Description: as §1, §2, §3

Where two headings read alike, the source gives them in different places. Bounds are passed on as bounds.

Sequence of CDK12 (aa686-1082)/Cyclin K complex (Q9NYV4 686-1082): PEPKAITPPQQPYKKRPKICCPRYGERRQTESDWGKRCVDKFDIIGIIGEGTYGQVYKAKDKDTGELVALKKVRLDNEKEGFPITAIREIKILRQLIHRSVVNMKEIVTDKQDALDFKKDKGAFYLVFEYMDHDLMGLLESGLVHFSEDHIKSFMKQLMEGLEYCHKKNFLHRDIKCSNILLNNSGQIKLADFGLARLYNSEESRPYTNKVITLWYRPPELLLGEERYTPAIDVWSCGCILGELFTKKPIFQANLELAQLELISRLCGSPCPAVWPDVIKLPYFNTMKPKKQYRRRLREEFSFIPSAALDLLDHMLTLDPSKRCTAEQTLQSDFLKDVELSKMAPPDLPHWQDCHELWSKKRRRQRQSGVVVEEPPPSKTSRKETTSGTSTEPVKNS
Sequence of CDK12 (aa686-1082)/Cyclin K complex (O75909 whole entry partner, the tested form may be a part): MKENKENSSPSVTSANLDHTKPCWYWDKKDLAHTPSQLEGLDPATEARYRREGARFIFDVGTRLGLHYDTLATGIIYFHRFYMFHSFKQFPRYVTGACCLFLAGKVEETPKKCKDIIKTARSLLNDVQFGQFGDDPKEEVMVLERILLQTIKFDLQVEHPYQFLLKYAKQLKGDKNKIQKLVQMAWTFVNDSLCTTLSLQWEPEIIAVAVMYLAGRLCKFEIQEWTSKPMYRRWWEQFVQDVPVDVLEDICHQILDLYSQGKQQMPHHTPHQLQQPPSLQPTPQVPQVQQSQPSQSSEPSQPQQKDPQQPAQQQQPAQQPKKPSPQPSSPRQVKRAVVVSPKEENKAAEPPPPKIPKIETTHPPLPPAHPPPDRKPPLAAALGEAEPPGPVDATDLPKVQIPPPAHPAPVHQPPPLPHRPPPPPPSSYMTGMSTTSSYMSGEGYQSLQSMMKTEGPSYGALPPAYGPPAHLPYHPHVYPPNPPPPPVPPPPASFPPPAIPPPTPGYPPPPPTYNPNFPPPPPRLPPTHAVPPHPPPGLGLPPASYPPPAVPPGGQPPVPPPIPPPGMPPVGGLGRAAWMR
Sequence of CDK7/Cyclin H/MAT1 complex (P50613 whole entry): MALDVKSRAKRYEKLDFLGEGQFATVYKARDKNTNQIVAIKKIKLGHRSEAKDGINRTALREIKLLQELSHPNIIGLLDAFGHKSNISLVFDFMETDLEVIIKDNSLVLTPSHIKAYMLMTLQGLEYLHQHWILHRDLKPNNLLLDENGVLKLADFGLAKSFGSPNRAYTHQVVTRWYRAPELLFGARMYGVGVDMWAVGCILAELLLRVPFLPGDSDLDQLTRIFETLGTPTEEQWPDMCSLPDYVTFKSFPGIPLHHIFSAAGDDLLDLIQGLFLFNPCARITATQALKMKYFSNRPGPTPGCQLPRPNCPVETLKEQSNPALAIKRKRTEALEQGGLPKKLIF
Sequence of CDK7/Cyclin H/MAT1 complex (P51946 whole entry partner): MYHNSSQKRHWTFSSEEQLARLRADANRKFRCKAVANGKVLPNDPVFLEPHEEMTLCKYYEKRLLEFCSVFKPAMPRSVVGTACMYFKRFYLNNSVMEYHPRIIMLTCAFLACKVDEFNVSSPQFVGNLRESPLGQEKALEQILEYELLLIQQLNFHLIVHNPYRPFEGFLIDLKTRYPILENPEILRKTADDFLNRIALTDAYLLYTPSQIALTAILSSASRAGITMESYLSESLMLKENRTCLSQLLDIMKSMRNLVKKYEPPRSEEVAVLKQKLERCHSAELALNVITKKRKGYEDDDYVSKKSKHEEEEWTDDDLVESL
Sequence of CDK7/Cyclin H/MAT1 complex (P51948 whole entry partner): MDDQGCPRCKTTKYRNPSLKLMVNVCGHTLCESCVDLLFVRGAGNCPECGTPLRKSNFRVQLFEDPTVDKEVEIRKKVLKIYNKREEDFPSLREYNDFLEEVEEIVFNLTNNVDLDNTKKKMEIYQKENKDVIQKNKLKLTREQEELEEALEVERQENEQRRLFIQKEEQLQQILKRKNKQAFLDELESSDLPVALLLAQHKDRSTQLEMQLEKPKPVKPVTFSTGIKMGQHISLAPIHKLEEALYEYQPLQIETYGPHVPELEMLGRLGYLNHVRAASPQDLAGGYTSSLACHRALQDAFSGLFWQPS
Description for CDK2/Cyclin E1 complex: as §1, §2, §3
Description for CDK9/Cyclin T1 complex: as §1, §2, §3

As for `Cc1nscc1-c1ccc2c(-c3nc(N[C@H]4CCCNC4)ncc3C(F)(F)F)c[nH]c2c1` [Compound 128], the IC50 (as a rule, the concentration needed to halve the response being measured) with HCC70 cells (Homo sapiens) was < 100 nM; in the experiment on COV318 cells (Homo sapiens), 100 to 500 nM; with COV504 cells (Homo sapiens), < 100 nM; in the experiment on MB453 cells (Homo sapiens), < 100 nM; against CDK2/Cyclin E1 complex it was > 500 nM; in experiment [1] it was < 30 nM. The IC50 (against CDK9/Cyclin T1 complex; in experiment [2]) was > 500 nM throughout.
On to `C[C@@H]1CC[C@@H](Nc2ncc(C(F)(F)F)c(-c3c[nH]c4nc(-c5nnnn5C)ccc34)n2)CN1` [Compound 164, N-[(3R, 6R)-6-methyl-3-piperidyl]-4-[6-(1-methyltetrazol-5-yl)-1H-pyrrolo[2,3-b]pyridin-3-yl]-5-(trifluoromethyl)pyrimidin-2-amine], for which the IC50 is 100 to 500 nM in the experiment on HCC70 cells (Homo sapiens); 500 to 1000 nM with COV318 cells (Homo sapiens); < 100 nM in the experiment with COV504 cells (Homo sapiens); < 100 nM in the experiment with MB453 cells (Homo sapiens); > 500 nM against CDK2/Cyclin E1 complex; < 30 nM in experiment [1]. In addition, the IC50 (against CDK9/Cyclin T1 complex; in experiment [2]) was > 500 nM each time.
Regarding `Cc1nsc(-c2ccc3c(-c4nc(N[C@@H]5CC[C@@H](C)NC5)ncc4C(F)(F)F)c[nH]c3n2)n1` [Compound 159, N-[(3R,6R)-6-methyl-3-piperidyl]-4-[6-(3-methyl-1,2,4-thiadiazol-5-yl)-1H-pyrrolo[2,3-b]pyridin-3-yl]-5-(trifluoromethyl)pyrimidin-2-amine], the IC50 in the experiment with HCC70 cells (Homo sapiens) was < 100 nM; in the experiment with COV318 cells (Homo sapiens), > 1000 nM; with COV504 cells (Homo sapiens), < 100 nM; in the experiment on MB453 cells (Homo sapiens), < 100 nM; at CDK2/Cyclin E1 complex, > 500 nM; in experiment [1], < 30 nM. Further, the IC50 (on CDK9/Cyclin T1 complex; in experiment [2]) was > 500 nM throughout.
As to `Cc1nnc(-c2ccc3c(-c4nc(N[C@H]5CCCNC5)ncc4C(F)(F)F)c[nH]c3c2)s1` [Compound 123], the IC50 in the experiment on HCC70 cells (Homo sapiens) is 100 to 500 nM; with COV318 cells (Homo sapiens), 100 to 500 nM; in the experiment with COV504 cells (Homo sapiens), < 100 nM; with MB453 cells (Homo sapiens), < 100 nM; at CDK2/Cyclin E1 complex, > 500 nM; in experiment [1] it was < 30 nM. Further, the IC50 (at CDK9/Cyclin T1 complex; in experiment [2]) was > 500 nM throughout.
In the case of “(3S)-tert-butyl 3-((4-(6-(3,5-dimethylisoxazol-4-yl)-5-fluoro-1H-pyrrolo[2,3-b]pyridin-3-yl)-5-(trifluoromethyl)pyrimidin-2-yl)amino)piperidine-1-carboxylate [Compound 138]”, the IC50 with HCC70 cells was < 100 nM; with COV318 cells it was < 100 nM; in the experiment on COV504 cells, < 100 nM; in the experiment on MB453 cells, < 100 nM; at CDK2/Cyclin E1 complex (read-out: CDK2 IC50, CDK2/Cyclin E1 0.5 nM, ATP 2 mM, 35 min at 27° C.), > 500 nM; in experiment [1] (read-out: CDK7 IC50, CDK7/Cyclin H/MAT1 6 nM, ATP 2 mM, 35 min at 27° C.), < 30 nM. In addition, the IC50 at CDK9/Cyclin T1 complex (read-out: CDK9 IC50, CDK9/Cyclin T1 8 nM, ATP 2 mM, 15 min at 27° C.) was > 500 nM; in experiment [2] (read-out: CDK12 IC50, CDK12 (aa686-1082)/Cyclin K 50 nM, ATP 2 mM, 3 hr at 27° C.), > 500 nM.
Regarding `Cc1nocc1-c1ccc2c(-c3nc(N[C@H]4CCCNC4)ncc3C(F)(F)F)c[nH]c2n1` [Compound 132], the half-inhibitory concentration (IC50) in the experiment on HCC70 cells (Homo sapiens) was < 100 nM; in the experiment on COV318 cells (Homo sapiens) it was < 100 nM; with COV504 cells (Homo sapiens), < 100 nM; with MB453 cells (Homo sapiens), < 100 nM; at CDK2/Cyclin E1 complex it was > 500 nM; in experiment [1], < 30 nM. The IC50 (at CDK9/Cyclin T1 complex; in experiment [2]) was > 500 nM each time.
Turning to `Cc1nc(-c2ccc3c(-c4nc(N[C@H]5CC[C@H](C)NC5)ncc4C(F)(F)F)n[nH]c3n2)no1` [Compound 167, 4-[6-(5-methyl-1,2,4-oxadiazol-3-yl)-1H-pyrazolo[3,4-b]pyridin-3-yl]-N-[(3S,6S)-6-methyl-3-piperidyl]-5-(trifluoromethyl)pyrimidin-2-amine], the IC50 with HCC70 cells (Homo sapiens) is < 100 nM; in the experiment with COV318 cells (Homo sapiens) it was 100 to 500 nM; with COV504 cells (Homo sapiens), < 100 nM; with MB453 cells (Homo sapiens), 100 to 500 nM; on CDK2/Cyclin E1 complex, > 500 nM; in experiment [1], < 30 nM. Besides, the IC50 (against CDK9/Cyclin T1 complex; in experiment [2]) was > 500 nM throughout.
Turning to `FC(F)(F)c1cnc(N[C@H]2CCCNC2)nc1-c1n[nH]c2cc(-c3nccs3)ccc12` [Compound 103], the IC50 is 100 to 500 nM in the experiment on HCC70 cells (Homo sapiens); 100 to 500 nM in the experiment on COV318 cells (Homo sapiens); < 100 nM in the experiment on COV504 cells (Homo sapiens); < 100 nM in the experiment on MB453 cells (Homo sapiens); > 500 nM against CDK2/Cyclin E1 complex; < 30 nM in experiment [1]. Moreover, the IC50 at CDK9/Cyclin T1 complex was > 500 nM; in experiment [2] it was 100 to 500 nM.
Regarding `Cn1nnnc1-c1ccc2c(-c3nc(N[C@H]4CCCNC4)ncc3C(F)(F)F)c[nH]c2c1` [Compound 122, 4-[6-(1-methyltetrazol-5-yl)-1Hindol-3-yl]-N-[(3S)-3-piperidyl]-5-(trifluoromethyl)pyrimidin-2-amine], the IC50 with HCC70 cells (Homo sapiens) is 100 to 500 nM; in the experiment on COV318 cells (Homo sapiens), > 1000 nM; with COV504 cells (Homo sapiens), < 100 nM; in the experiment on MB453 cells (Homo sapiens) it was < 100 nM; against CDK2/Cyclin E1 complex, > 500 nM; in experiment [1] it was < 30 nM. Also, the IC50 (on CDK9/Cyclin T1 complex; in experiment [2]) was > 500 nM each time.
For `Cc1noc(C)c1-c1ccc2c(-c3nc(N[C@@H]4CNC[C@H](O)C4)ncc3C(F)(F)F)n[nH]c2n1` [Compound 146, (3R, 5S)-5-[[4-[6-(3,5-dimethylisoxazol-4-yl)-1H-pyrazolo[3,4-b]pyridin-3-yl]-5-(trifluoromethyl)pyrimidin-2-yl]amino]piperidin-3-ol], the IC50 is 500 to 1000 nM in the experiment on HCC70 cells (Homo sapiens); > 1000 nM in the experiment with COV318 cells (Homo sapiens); 100 to 500 nM in the experiment with COV504 cells (Homo sapiens); 100 to 500 nM with MB453 cells (Homo sapiens); > 500 nM at CDK2/Cyclin E1 complex; < 30 nM in experiment [1]. Also, the IC50 (against CDK9/Cyclin T1 complex; in experiment [2]) was > 500 nM in each case.
On to `CC1(C)CNC[C@@H](Nc2ncc(C(F)(F)F)c(-c3c[nH]c4cc(-c5nccs5)ccc34)n2)C1` [Compound 109], for which the IC50 with HCC70 cells (Homo sapiens) was 100 to 500 nM; in the experiment with COV318 cells (Homo sapiens), < 100 nM; with COV504 cells (Homo sapiens), < 100 nM; in the experiment with MB453 cells (Homo sapiens), 100 to 500 nM; against CDK2/Cyclin E1 complex, > 500 nM; in experiment [1] it was < 30 nM. The IC50 (on CDK9/Cyclin T1 complex; in experiment [2]) was > 500 nM in each case.
In the case of `Cc1noc(-c2ccc3c(-c4nc(N[C@H]5CCCNC5)ncc4C(F)(F)F)c[nH]c3c2)n1` [Compound 121, 4-[6-(3-methyl-1,2,4-oxadiazol-5-yl)-1H-indol-3-yl]-N-[(3S)-3-piperidyl]-5 (trifluoromethyl)pyrimidin-2-amine], the IC50 is 100 to 500 nM with HCC70 cells (Homo sapiens); 100 to 500 nM in the experiment on COV318 cells (Homo sapiens); < 100 nM in the experiment on COV504 cells (Homo sapiens); < 100 nM in the experiment on MB453 cells (Homo sapiens); > 500 nM at CDK2/Cyclin E1 complex; < 30 nM in experiment [1]. Besides, the IC50 (against CDK9/Cyclin T1 complex; in experiment [2]) was > 500 nM each time.
As for `C[C@H]1CC[C@H](Nc2ncc(C(F)(F)F)c(-c3c[nH]c4nc(-c5cnnn5C)ccc34)n2)CN1` [Compound 150, N-[(3S,6S)-6-methyl-3-piperidyl]-4-[6-(3-methyltriazol-4-yl)-1H-pyrrolo[2,3-b]pyridin-3-yl]-5-(trifluoromethyl)pyrimidin-2-amine], the IC50 with HCC70 cells (Homo sapiens) is 100 to 500 nM; in the experiment with COV318 cells (Homo sapiens), 100 to 500 nM; in the experiment on COV504 cells (Homo sapiens), < 100 nM; in the experiment with MB453 cells (Homo sapiens) it was < 100 nM; on CDK2/Cyclin E1 complex it was > 500 nM; in experiment [1], < 30 nM. Also, the IC50 (on CDK9/Cyclin T1 complex; in experiment [2]) was > 500 nM in each case.
